Measurements: US20110294728A1, “Antiviral Polypeptides” (priority 2008, published 2011)
Where a SMILES comes first, the peptide text is derived from it. Bridges are numbered along the chain shown (N, C = ends). Where no end group is shown, it is not given here.

Key:
[1] = biological target: T1, HIV-1 RT (Human immunodeficiency virus type 1 group M subtype B, UniProt P03366); experiment: biochemical
T1 construct: The heterodimeric p66/p51 RT was eluted with an imidazole gradient; p66 and p51 derived from p66 by proteolytic cleavage of the C-terminal RNAse H domain; made in house; host or cells: E. coli (M15 for the His-tagged subunits)
Protocol: RNA-dependent-DNA RT-polymerase activity was measured in a standard reaction assay using poly(rA)-(dT)15 as template/primer as described in Restle et al. (1990). Ten microliters of reverse transcriptase (RT) at 20 nM was incubated at 37° C. for 30 min with 20 μL of reaction buffer (50 mM Tris, pH 8.0, 80 mM KCl, 6 mM MgCl2, 5 mM DTT, 0.15 μM poly(rA-dT), 15 μM dTTP, 0.3 μCi 3H-dTTP). For peptide evaluation, HIV-1 RT was incubated with increasing concentrations of peptide inhibitors for […], and polymerase reaction was initiated by adding reaction buffer. Reactions were stopped by precipitation of nucleic acids with 5 ml of 20% trichloroacetic acid (TCA) solution for 2 h on ice, then filtered using a multiwell-sample collector (Millipore), and washed with 5% TCA solution. Filters were dried at 55° C. for 30 min and radionucleotide incorporation was determined by liquid scintillation spectrometry.
A series of peptides have been derived from Pep-A sequence (SEQ ID NO: 28), which is derived from HIV-1 reverse transcriptase. First, P1 peptide (SEQ ID NO: 1) was obtained by removing the N-terminal arginine of Pep-A. Then, additional peptides were generated by performing an alanine scan on P1. P1-derived peptides were evaluated using a standard polymerase RT assay. Reported data correspond to the mean of three separate experiments.

[2] = system: HIV-1-LAI strain; settings: for IC50, block of viral proliferation (in words): peptide associated with Pep-1
Protocol: The anti-HIV activities of the peptides were assayed according to the methods described in Roisin et al. (2004). Phytohemagglutinin-P(PHA-P)-activated peripheral blood mononuclear cells (PBMC) treated by increasing concentrations of peptide (from 100 to 0.1 nM), one hour later, were infected with hundred 50% tissue culture infectious doses (TCID50) per 100,000 cells of the HIV-1-LAI strain (Barre-Sinoussi et al., 1983). This virus was amplified in vitro on PHA-P-activated PBMC. Viral stock was titrated using PHA-P-activated PBMC, and 50% TCID50 were calculated using Kärber's formula (Kärber, 1931). Samples were maintained throughout the culture, and cell supernatants were collected at day 7 post-infection and stored at −20° C. Viral replication was measured by quantifying reverse transcriptase (RT) activity in cell culture supernatants. In parallel, cytotoxicity of the compounds was evaluated in uninfected PHA-P-activated PBMC by colorimetric 3-(4-5 dimethylthiazol-2-yl)2,5diphenyl tetrazolium bromite (MTT) assay on day 7 (as described in Mossmann, 1983). Experiments were performed in triplicate and repeated with another blood donor. Data analyses were performed using SofiMax® Pro 4.6 microcomputer software: percent of inhibition of RT activity or of cell viability were plotted vs concentration and fitted with quadratic curves; 50% effective doses (ED50) and cytotoxic doses (CD50) were calculated.
In order to avoid any limitation due to the poor ability of peptides to cross cellular membranes, they were associated to the peptide-based nanoparticle delivery system Pep-1 (SEQ ID NO: 29), at a 1/10 molar ratio.

[3] = biological target: T2, HIV-1 integrase (Human immunodeficiency virus type 1 group M subtype B, UniProt P04585); experiment: biochemical; assay type: binding
T2 construct: Integrase is a 32 kDA viral protein that is biologically active under a multimeric form
Protocol: Fluorescein-labeled peptides (40 nM) were mixed with varying concentrations of integrase in 20 mM Tris pH 7.2, 50 mM NaCl, 10 mM MgCl2, and the r values were recorded.
Effect of the different peptides on the integrase (IN) activity, DNA binding and IN/DNA dissociation were evaluated as described in Example III.1 above, using fluorescence polarization and anisotropy measurements. Binding constant of the peptide for IN was determined by steady state fluorescence and anisotropy.

[4] = biological target: T2, HIV-1 integrase; experiment: biochemical
Protocol: The simultaneous measurement of integrase-DNA interaction and subsequent 3′-processing activity by steady-state fluorescence anisotropy was performed as described in Guiot et al. (2006). […] After the initial DNA-binding step (performed at 25° C.), the 3′-processing activity was measured at 37° C. by fixed-time experiments: The reaction was stopped at varying times by adding SDS (0.25% final) which disrupts all IN-DNA complexes in the sample. The IN-mediated cleavage of the terminal GT dinucleotide (labeled by fluorescein on the 3′-end) leads to a significant decrease of r as compared to the r value corresponding to the fluorescein-labeled unprocessed DNA substrate. The fraction of released dinucleotide is calculated by using Eq. (1): […]

In the case of GAKTETLVIPETELEA [Pscramble], the Ki [1] is reported as 61 ± 12 µM.
CC[C@H](C)[C@@H]1NC(=O)[C@H](Cc2c[nH]c3ccccc23)NC(=O)[C@H](CCC(=O)O)NC(=O)[C@H]([C@@H](C)O)NC(=O)[C@H](CC(C)C)NC(=O)[C@H](Cc2c[nH]c3ccccc23)NC(=O)[C@H](CCCCN)NC(=O)[C@H]([C@@H](C)O)NC(=O)CNC(=O)[C@@H](N)CSSC[C@@H](C(=O)O)NC(=O)[C@H](CCC(=O)O)NC(=O)[C@H](C)NC(=O)[C@H](CCC(=O)O)NC(=O)[C@H](C)NC(=O)[C@H]([C@@H](C)O)NC(=O)[C@H](CC(C)C)NC(=O)[C@@H]2CCCN2C1=O [PAW-C1] (H-CGTKWLTEWIPLTAEAEC-OH; disulfide 1-18) was tested, and the Ki [1] was 0.2 µM, the EC50 ([2]; read-out: EC50 HIV-1 lai, Table 10) was 0.0012 µM and the Kd [3] was 0.29 µM. For the same compound, the Ki [4] was 21 µM.
GTKALTEVAPLTEEAE [Peptide P10] was tested, and the Ki [1] was 7.3 µM and the “IC50, block of viral proliferation (in words)” value (shortened to “IC50, block”) [2] was “low μM range”.
In the case of GTKAATEVIPLT [Peptide P19], the Ki [1] is reported as 49 ± 9 µM.
In the case of CC[C@H](C)[C@H](NC(=O)[C@@H](NC(=O)[C@H](CCC(=O)O)NC(=O)[C@@H](NC(=O)[C@H](CC(C)C)NC(=O)[C@H](C)NC(=O)[C@H](CCCCN)NC(=O)[C@H](C)NC(=O)CN)[C@@H](C)O)C(C)C)C(=O)N1CCC[C@H]1C(=O)N[C@@H](CC(C)C)C(=O)N[C@H](C(=O)N[C@@H](CCC(=O)O)C(=O)N[C@@H](CCC(=O)O)C(=O)N[C@@H](C)C(=O)N[C@@H](CCC(=O)O)C(=O)O)[C@@H](C)O [Peptide P3], the Ki [1] is reported as 10.3 ± 2.1 µM.
CC[C@H](C)[C@H](NC(=O)[C@@H](NC(=O)[C@H](CCC(=O)O)NC(=O)[C@@H](NC(=O)[C@H](CC(C)C)NC(=O)[C@H](C)NC(=O)[C@H](CCCCN)NC(=O)[C@@H](NC(=O)CN)[C@@H](C)O)[C@@H](C)O)C(C)C)C(=O)N1CCC[C@H]1C(=O)N[C@@H](CC(C)C)C(=O)N[C@H](C(=O)N[C@@H](C)C(=O)N[C@@H](CCC(=O)O)C(=O)N[C@@H](C)C(=O)N[C@@H](CCC(=O)O)C(=O)O)[C@@H](C)O [Peptide P14] was tested, and the Ki [1] was 14 ± 3 µM.
For CC[C@H](C)[C@H](NC(=O)[C@@H](NC(=O)[C@H](CCC(=O)O)NC(=O)[C@@H](NC(=O)[C@H](CC(C)C)NC(=O)[C@H](C)NC(=O)[C@H](CCCCN)NC(=O)[C@@H](NC(=O)CNC(=O)[C@@H](N)CCCNC(=N)N)[C@@H](C)O)[C@@H](C)O)C(C)C)C(=O)N1CCC[C@H]1C(=O)N[C@@H](CC(C)C)C(=O)N[C@H](C(=O)N[C@@H](CCC(=O)O)C(=O)N[C@@H](CCC(=O)O)C(=O)N[C@@H](C)C(=O)N[C@@H](CCC(=O)O)C(=O)O)[C@@H](C)O [Pep-A, reference compound], the Ki [1] was 35 µM and the “antiviral activity (in words)” value ([2]; associated to Pep-1) was “no antiviral activity”.
Work on GTKALTEVIPLAEEAE [Peptide P13] yielded a Ki [1] of 10.2 ± 2.5 µM.
With GTKALTEVIPATEEAE [Peptide P12] the Ki [1] was 22 ± 3 µM.
GTKALAEVIPLTEEAE [Peptide P7] gave a Ki [1] of 13.5 ± 2.1 µM.
With GTKAATEVIPLTEEAE [Peptide P6] the Ki [1] was 5.7 µM and the “IC50, block” value [2] was “low μM range”.
GTKAWTEVWPL [Peptide P17] was tested, and the Ki [1] was 35 ± 11 µM and the “reduction of efficiency (higher Ki) relative to PAW” value ([1]; relative to PAW) was 50 fold.
For CC[C@H](C)[C@H](NC(=O)[C@@H](NC(=O)[C@H](CCC(=O)O)NC(=O)[C@@H](NC(=O)[C@H](CC(C)C)NC(=O)[C@H](C)NC(=O)[C@H](CCCCN)NC(=O)[C@@H](NC(=O)CN)[C@@H](C)O)[C@@H](C)O)C(C)C)C(=O)N1CCC[C@H]1C(=O)N[C@@H](CC(C)C)C(=O)N[C@H](C(=O)N[C@@H](CCC(=O)O)C(=O)N[C@@H](CCC(=O)O)C(=O)N[C@@H](C)C(=O)N[C@@H](CCC(=O)O)C(=O)O)[C@@H](C)O [Peptide P1], the Ki [1] was 7.5 µM, the “increase in potency to inhibit RT polymerase over Pep-A” value ([1]; relative to Pep-A) was 5 fold and the “IC50, block” value [2] was “low μM range”.
GTKALTEAIPLTEEAE [Peptide P9] showed a Ki [1] of 15 ± 7.3 µM.
Compound KWLTEWIPLTAE [Peptide P29] has a Ki [1] of 1 ± 0.4 µM.
Compound CC[C@H](C)[C@H](NC(=O)[C@@H](NC(=O)[C@H](CCC(=O)O)NC(=O)[C@@H](NC(=O)[C@H](CC(C)C)NC(=O)[C@H](C)NC(=O)[C@H](CCCCN)NC(=O)[C@@H](NC(=O)CN)[C@@H](C)O)[C@@H](C)O)C(C)C)C(=O)N1CCC[C@H]1C(=O)N[C@@H](CC(C)C)C(=O)N[C@H](C(=O)N[C@@H](CCC(=O)O)C(=O)N[C@@H](C)C(=O)N[C@@H](C)C(=O)N[C@@H](CCC(=O)O)C(=O)O)[C@@H](C)O [Peptide P15] has a Ki [1] of 14 ± 2.2 µM.
With GTKALTEVIALTEEAE [Peptide P11] the Ki [1] was 7 µM and the “IC50, block” value [2] was “low μM range”.
CC[C@H](C)[C@H](NC(=O)[C@@H](NC(=O)[C@H](CCC(=O)O)NC(=O)[C@@H](NC(=O)[C@H](CC(C)C)NC(=O)[C@H](C)NC(=O)[C@H](C)NC(=O)[C@@H](NC(=O)CN)[C@@H](C)O)[C@@H](C)O)C(C)C)C(=O)N1CCC[C@H]1C(=O)N[C@@H](CC(C)C)C(=O)N[C@H](C(=O)N[C@@H](CCC(=O)O)C(=O)N[C@@H](CCC(=O)O)C(=O)N[C@@H](C)C(=O)N[C@@H](CCC(=O)O)C(=O)O)[C@@H](C)O [Peptide P4] gave a Ki [1] of 15 ± 2.9 µM.
Compound CC[C@H](C)[C@H](NC(=O)[C@@H](NC(=O)[C@H](CCC(=O)O)NC(=O)[C@@H](NC(=O)[C@H](CC(C)C)NC(=O)[C@H](C)NC(=O)[C@H](CCCCN)NC(=O)[C@@H](NC(=O)[C@H](C)N)[C@@H](C)O)[C@@H](C)O)C(C)C)C(=O)N1CCC[C@H]1C(=O)N[C@@H](CC(C)C)C(=O)N[C@H](C(=O)N[C@@H](CCC(=O)O)C(=O)N[C@@H](CCC(=O)O)C(=O)N[C@@H](C)C(=O)N[C@@H](CCC(=O)O)C(=O)O)[C@@H](C)O [Peptide P2] has a Ki [1] of 28 ± 11 µM.
For CC[C@H](C)[C@H](NC(=O)[C@@H](NC(=O)[C@H](CCC(=O)O)NC(=O)[C@@H](NC(=O)[C@H](CC(C)C)NC(=O)[C@H](C)NC(=O)[C@H](CCCCN)NC(=O)[C@@H](NC(=O)CN)[C@@H](C)O)[C@@H](C)O)C(C)C)C(=O)N1CCC[C@H]1C(=O)N[C@@H](CC(C)C)C(=O)N[C@H](C(=O)O)[C@@H](C)O [Peptide P18], the Ki [1] was 53 ± 12 µM and the “inhibition of RT polymerase activity (in words)” value [1] was “does not inhibit RT polymerase activity”.
With CC[C@H](C)[C@H](NC(=O)[C@@H](NC(=O)[C@H](CCC(=O)O)NC(=O)[C@@H](NC(=O)[C@H](CC(C)C)NC(=O)CNC(=O)[C@H](CCCCN)NC(=O)[C@@H](NC(=O)CN)[C@@H](C)O)[C@@H](C)O)C(C)C)C(=O)N1CCC[C@H]1C(=O)N[C@@H](CC(C)C)C(=O)N[C@H](C(=O)N[C@@H](CCC(=O)O)C(=O)N[C@@H](CCC(=O)O)C(=O)N[C@@H](C)C(=O)N[C@@H](CCC(=O)O)C(=O)O)[C@@H](C)O [Peptide P5] the Ki [1] was 20 ± 3.7 µM.
GTKWATEWAPLTAEAE [Peptide P28] gave a Ki [1] of 2 ± 0.6 µM.
